Measured values: paper PMC12555100, “Dextromethorphan Versus Dextrorphan: A Quantitative Comparison of Antitussive Potency Following Separate Administration of Metabolite” (Journal of Clinical Pharmacology, 2025)
Values joined by “and” are separate entries in the source; they are usually repeats but may differ in a detail not shown here. Equal entries are not always repeated. Where two headings read alike, the source gives them in different places.

Experiments:
[1] = Population pharmacokinetic model (joint parent drug-metabolite model; two-compartment model for DOR given on its own); type: in vivo, human; details: for Vd/F / Between‐subject variability of V/F: after administration of DEX; for Vd/F: taken as equal for DEX and DOR, read-out: V/F, volume of distribution; for Between‐subject variability of V/F: common to DEX and DOR
Procedure: Pharmacokinetic/pharmacodynamic analysis (PKPD) of DEX and DOR was conducted using non‐linear mixed effects modelling with Monolix software, 2024R1 (Lixoft SAS, Antony, France). The analysis followed a sequential approach, where the PK parameters of both compounds were estimated initially, and then these were used alongside the cough data to build the PK/PD model. The model components are described below:
A joint parent drug‐metabolite model[26] (Figure 1) was considered for DEX and DOR following administration of DEX with first‐pass effect and without dose apportionment. Different goodness‐of‐fit factors, such as corrected Bayesian information criterion (BICc), various diagnostic plots, such as visual predictive check used for final model selection. This model assumed a one‐compartment model for both compounds and unidirectional transformation of the parent drug to the metabolite in DEX arm of the study. The distribution of DOR after its administration on its own in a separate arm of the study was considered to follow a two‐compartment model. Inter‐individual variability of PK parameters was assumed to be log‐normally distributed. Proportional error model was used to model the intra‐individual variability.
Figure 1 Schematic representation of the joint parent drug‐metabolite structural model with first‐pass effect and without dose‐apportionment used to describe the pharmacokinetics of dextromethorphan and dextrorphan following administration of dextromethorphan. F, bioavailability of the parent drug; DEX dose, dose of dextromethorphan; ka(DORDEX), absorption constant of dextromethorphan; ka(DOR), absorption constant of dextrorphan; kpm, transformation rate constant from parent to metabolite; VDEX and VDOR_DEX are the volume of the central compartment for the dextromethorphan and dextrorphan, respectively which are considered to be equal; k(DEX), elimination rate constant for dextromethorphan by other pathways; k(DOR), the elimination constant of dextrorphan.
As shown, the concentration of DOR formed by the metabolism of DEX is higher than that of the DOR after preformed DOR is administered on its own. The joint parent drug‐metabolite model with first‐pass effect and without dose apportionment best described the plasma concentration‐time profile of DEX and unconjugated DOR following administration of DEX. The two‐compartment model fitted well to the data of DOR from the administration of preformed DOR. The goodness‐of‐fit of the combined models could be seen in the observed versus predicted plots and visual predictive check graphs of the models (Figure 4). […] Since there was not enough data in the absorption phase, the value of first‐order absorption rate constant for both DEX and preformed DOR was fixed to the reported values of 2.6 h^−1 23. To prevent the identifiability problem, equal extravascular apparent volume of distributions were considered for the parent drug and the metabolite in the joint model. It is important to emphasize that the primary focus of this study is on characterizing the PKPD relationship rather than on developing a detailed PK model. While a mechanistic PK model can provide insights, our primary objective can also be achieved using any empirical PK model, provided it adequately describes the data and supports the PKPD link. The selection of a one‐compartment model for DEX and a two‐compartment model for DOR reflects this practical approach and ensures compatibility with the data under different conditions. The disparity of the disposition model for DOR may indicate that formation kinetics from DEX masks the first phase of distribution when assessing the kinetics of formed DOR, whilst this becomes evident under direct administration of DOR.

[2] = Plasma concentrations of DEX and unconjugated DOR (HPLC), model-independent pharmacokinetics; type: in vivo, human; details: for 24‐h plasma concentration: almost all subjects (except in 2 cases); for AUC / Cmax / Tmax: both sexes, human, oral
Excerpt: The clinical trial has been performed according to the Declaration of Helsinki and was approved by the North Sheffield Research and Ethics Committee (approval number NS98/183). All participants enrolled into the clinical trial have given informed consent. Data were collected from twenty‐three healthy non‐smoker volunteers (12 male) aged 19‐51 years who took part in a double‐blind randomized placebo controlled cross‐over study. […] The exclusion criteria were respiratory tract infection or acute cough within the last 4 weeks, receiving any medication within previous 2 weeks, and any medical condition which may interfere with the study. Preceding the visit day, the volunteer was asked to fast for 8 h, abstain from alcohol, and abstain from caffeinated drinks throughout the study day. Written informed consent was obtained from all volunteers. The study was approved by the […] Research and Ethics Committee. Subjects' cough response to citric acid challenge test was studied on three separate occasions (separated at least 7 days apart) following administration of (i) placebo; (ii) 40.5 mg dextromethorphan hydrobromide; (iii) 44.6 mg of dextrorphan‐D‐tartrate. The order of treatments (placebo, DEX, and DOR) was randomized across participants using a balanced Latin square design to ensure equal distribution of sequence effects. Blood samples for PK analysis were taken periodically (at 0, 1, 2, 3, 4, 5, 6, 8, 10, 12, and 24 h post administration of DEX and DOR).
Plasma concentrations of DEX and unconjugated DOR were determined using high‐performance liquid chromatography with fluorometric detection according to the method of Chen et al.[25] The intra‐assay coefficient of variation for these analyses at a concentration of 2.5 ng/mL ranged from 6% to 13%. The lower limits of quantification were determined to be 0.3 ng/mL for DOR and 0.5 ng/mL for DEX.
The percent of change in cough number relative to the baseline (t = 0) was plotted against time and the maximum reduction in cough response (Emax) and its […] (TEmax) were determined. The area under the percent of reduction in cough number against time between 0 until 24 h (AUEC0‐24 h) was calculated using the trapezoidal rule. The correlation between AUEC0‐24 h and area under plasma concentration time between zero and 24 h (AUC0‐24 h) of DEX, (endogenously) formed DOR and directly administered DOR was statistically examined using Spearman rank correlation test. The Friedman test (followed by Dunn's multiple comparison) was used to compare the AUC values of DEX and DOR, as well as the AUEC values, between the different arms of the study.

[3] = test system: guinea pig brain slices; set-up: method as in PMID 2897648; details: cited from earlier work
[4] = fixed in the model for DEX and directly administered (preformed) DOR, cited from earlier work
[5] = both sexes, human, plasma, oral, population estimate
[6] = plasma, mean, plasma, the administered compound itself (40.5 mg DEX HBr or 44.6 mg DOR-D-tartrate), unconjugated DOR, read-out: AUC0‐24 h, mean
[7] = plasma, mean, plasma, the administered compound itself (40.5 mg DEX HBr or 44.6 mg DOR-D-tartrate), unconjugated DOR, read-out: Cmax, mean
[8] = plasma, mean, plasma, the administered compound itself (40.5 mg DEX HBr or 44.6 mg DOR-D-tartrate), unconjugated DOR, read-out: Tmax, mean
[9] = plasma, median, plasma, the administered compound itself, read-out: AUC0‐24 h, median
[10] = plasma, median, plasma, the administered compound itself, read-out: Tmax, median
[11] = population PK model, direct administration of DOR
[12] = population estimate, after direct administration of DOR

Structure (SMILES) | Vd/F [1, 5] | Between‐subject variability of V/F ([1]; population PK model) | 24‐h plasma concentration [2] | AUC [2, 6] | Cmax [2, 7] | Tmax [2, 8] | AUC [2, 9] | Tmax [2, 10] | Antiepileptic activity [3] | ka, first-order absorption rate constant (fixed) [4] | other results
COc1ccc2c(c1)[C@]13CCCC[C@@H]1[C@H](C2)N(C)CC3 [DEX, dextromethorphan] | 4870 L | 48 CV% | below the limit of quantitation | 26.7 ng·h/mL | 3.5 ng/mL | 1.8 h | 16.7 ng·h/mL | 1 h | possess antiepileptic activity | 2.6 h^−1 and 2.6 (fixed) h^−1 | k el ([1]; both sexes, human, plasma, oral, population estimate, read-out: k(DEX), elimination rate constant for dextromethorphan by other pathways (converted)): 2.78e-05 s⁻¹; Between‐subject variability of k(DEX) ([1]; population PK model): 108 CV%; Between‐subject variability of kpm ([1]; population PK model): 43 CV%; kpm, transformation rate constant from parent (dextromethorphan) to metabolite (dextrorphan) ([1]; population estimate): 0.04 h⁻¹; Cmax, median ([2]; median, plasma, the administered compound itself): 2.2 ng/mL
CN1CC[C@@]23CCCC[C@@H]2[C@@H]1Cc1ccc(O)cc13 [DOR, dextrorphan] | 4870 L | 48 CV% | below the limit of quantitation | 17.4 ng·h/mL | 4.1 ng/mL | 1.1 h | 18.9 ng·h/mL | 1 h | possess antiepileptic activity | 2.6 (fixed) h^−1 | Between‐subject variability of k(DOR) ([1]; population PK model): 32 CV%; Between‐subject variability of V1/F(DOR) [1, 11]: 32 CV%; Between‐subject variability of k12(DOR) [1, 11]: 196 CV%; Between‐subject variability of k21(DOR) [1, 11]: 299 CV%; k(DOR), elimination constant of dextrorphan ([1]; population estimate): 0.2 h⁻¹; V1/F(DOR), volume of the central compartment [1, 12]: 6984 L; k12(DOR), transfer rate constant central to peripheral [1, 12]: 0.57 h⁻¹; k21(DOR), transfer rate constant peripheral to central [1, 12]: 0.60 h⁻¹; Cmax and Tmax of formed DOR compared with direct administration of DOR ([2]; Friedman and Dunn's tests): not statistically different; AUC0−24 h of formed DOR (from DEX metabolism) compared with direct administration of DOR ([2]; Friedman and Dunn's tests, P‐value = .003, higher molar dose of DOR than of DEX): significantly higher; Cmax ([2]; plasma, median, plasma, the administered compound itself, read-out: Cmax, median): 3.8 ng/mL; Plasma concentration of DOR relative to DEX after administration of DEX ([2]; majority of measurement times): up to twofold higher; ka, first-order absorption rate constant (fixed) ([4]; listed as preformed DOR): 2.6 h⁻¹
